According to patent publication US4156777A, “Process for producing glucopyranose-nitrosourea compounds and novel compounds included therein” (Tokyo Tanabe Company, Limited, priority 1977, dated 1979):

Experiments:
[1] = test system: leukemia L-1210; test: Antitumor activity against leukemia L-1210 implanted in BDF1 mice (ILS, 60 days survivors); format: in vivo
Excerpt: Test compounds were given to BDF1 mice 24 hrs after implantation of 10^6 cells of leukemia L-1210 in each animal, through single intraperitoneal administration, intraperitoneal administration for 5 successive days, single oral administration or oral administration for 5 successive days, whereupon the increase in life span (referred to as "ILS") and number of 60 days survivors of test animals were estimated, said test of antitumor activity being that according to the method of the National Cancer Center, Tokyo [A. Hoshi et al: Farmashia, 9 (1973), 464]. In the tests, the compounds were dissolved in physiological saline solution just before administration.
^a i.p.: intraperitoneal administration p.o: oral administration
D1 : single administration D1~5 : administration for 5
^b percentage calculated from mean survival time over control
^c survivors/six animals

[2] = known compounds, generally seen; cited from earlier work
[3] = test system: various kinds of bacteria; test: Antibacterial activity (overall statement); format: cell-based; conditions: Table VI
Excerpt: Using 6DCNU and 6MCαG, minimum inhibiting concentrations (referred to as "MIC") for various kinds of bacteria were estimated by means of the broth-dilution method.

For `CO[C@H]1O[C@H](CNC(=O)N(CCCl)N=O)[C@@H](O)[C@H](O)[C@H]1O` [Example 6MCαG, 1-(2-chloroethyl)-3-(methyl α-D-glucopyranos-6-yl)-1-nitrosourea], which ILS ([1]; 2.3 mg/kg/day, i.p. D1~5) is on record?
Its ILS is greater than 207%.

What about the “Survivors (60 days)” value ([1]; 2.3 mg/kg/day, i.p. D1~5) of the same compound?
The value was 1/6.

What about the ILS ([1]; 3.2 mg/kg/day, i.p. D1~5) of the same compound?
Its ILS is greater than 521%.

And the “Survivors (60 days)” value ([1]; 3.2 mg/kg/day, i.p. D1~5)?
Its value is 4/6.

What about the ILS ([1]; 3.2 mg/kg/day, p.o. D1~5) of the same compound?
The ILS was 38%.

And the ILS ([1]; 4.5 mg/kg/day, i.p. D1~5)?
The ILS was greater than 607%.

What about the “Survivors (60 days)” value ([1]; 4.5 mg/kg/day, i.p. D1~5) of the same compound?
The value was 5/6.

What about the ILS ([1]; 6.3 mg/kg/day, i.p. D1) of the same compound?
The ILS was greater than 241%.

What about the “Survivors (60 days)” value ([1]; 6.3 mg/kg/day, i.p. D1) of the same compound?
The value was 3/6.

And the ILS ([1]; 6.3 mg/kg/day, i.p. D1~5)?
Its ILS is greater than 722%.

What about the “Survivors (60 days)” value ([1]; 6.3 mg/kg/day, i.p. D1~5) of the same compound?
The value was 6/6.

What about the ILS ([1]; 6.3 mg/kg/day, p.o. D1~5) of the same compound?
The ILS was greater than 397%.

What about the “Survivors (60 days)” value ([1]; 6.3 mg/kg/day, p.o. D1~5) of the same compound?
Its value is 3/6.

What about the ILS ([1]; 9.0 mg/kg/day, i.p. D1) of the same compound?
Its ILS is greater than 604%.

What about the “Survivors (60 days)” value ([1]; 9.0 mg/kg/day, i.p. D1) of the same compound?
The value was 5/6.

What about the ILS ([1]; 9.0 mg/kg/day, i.p. D1~5) of the same compound?
The ILS was greater than 700%.

And the “Survivors (60 days)” value ([1]; 9.0 mg/kg/day, i.p. D1~5)?
The value was 6/6.

What about the ILS ([1]; 9.0 mg/kg/day, p.o. D1~5) of the same compound?
The ILS was greater than 417%.

And the “Survivors (60 days)” value ([1]; 9.0 mg/kg/day, p.o. D1~5)?
Its value is 3/6.

What about the ILS ([1]; 12.5 mg/kg/day, i.p. D1) of the same compound?
The ILS was greater than 619%.

What about the “Survivors (60 days)” value ([1]; 12.5 mg/kg/day, i.p. D1) of the same compound?
Its value is 6/6.

What about the ILS ([1]; 12.5 mg/kg/day, i.p. D1~5) of the same compound?
The ILS was greater than 722%.

What about the “Survivors (60 days)” value ([1]; 12.5 mg/kg/day, i.p. D1~5) of the same compound?
The value was 6/6.

What about the ILS ([1]; 12.5 mg/kg/day, p.o. D1~5) of the same compound?
The ILS was greater than 700%.

And the “Survivors (60 days)” value ([1]; 12.5 mg/kg/day, p.o. D1~5)?
Its value is 6/6.

What about the ILS ([1]; 18.0 mg/kg/day, i.p. D1) of the same compound?
The ILS was greater than 632%.

What about the “Survivors (60 days)” value ([1]; 18.0 mg/kg/day, i.p. D1) of the same compound?
Its value is 6/6.

What about the ILS ([1]; 18.0 mg/kg/day, i.p. D1~5) of the same compound?
The ILS was greater than 493%.

What about the “Survivors (60 days)” value ([1]; 18.0 mg/kg/day, i.p. D1~5) of the same compound?
Its value is 4/6.

What about the ILS ([1]; 18.0 mg/kg/day, p.o. D1~5) of the same compound?
The ILS was greater than 679%.

What about the “Survivors (60 days)” value ([1]; 18.0 mg/kg/day, p.o. D1~5) of the same compound?
Its value is 6/6.

And the ILS ([1]; 25.0 mg/kg/day, i.p. D1)?
Its ILS is greater than 625%.

What about the “Survivors (60 days)” value ([1]; 25.0 mg/kg/day, i.p. D1) of the same compound?
Its value is 6/6.

And the ILS ([1]; 25.0 mg/kg/day, i.p. D1~5)?
Its ILS is greater than 393%.

What about the “Survivors (60 days)” value ([1]; 25.0 mg/kg/day, i.p. D1~5) of the same compound?
The value was 3/6.

What about the ILS ([1]; 25.0 mg/kg/day, p.o. D1~5) of the same compound?
The ILS was 233%.

And the ILS ([1]; 35.0 mg/kg/day, i.p. D1)?
The ILS was greater than 632%.

What about the “Survivors (60 days)” value ([1]; 35.0 mg/kg/day, i.p. D1) of the same compound?
The value was 6/6.

What about the ILS ([1]; 35.0 mg/kg/day, i.p. D1~5) of the same compound?
The ILS was greater than 157%.

And the “Survivors (60 days)” value ([1]; 35.0 mg/kg/day, i.p. D1~5)?
The value was 1/6.

And the ILS ([1]; 50.0 mg/kg/day, i.p. D1)?
The ILS was greater than 388%.

And the “Survivors (60 days)” value ([1]; 50.0 mg/kg/day, i.p. D1)?
Its value is 3/6.

And the “diabetogenic activity, decreasing order” value [2]?
Its value is “SZ>DCNU>GANU> 2MCαG≈6MCαG”.

Which ILS ([1]; 3.2 mg/kg/day, i.p. D1~5) does the source give for `O=NN(CCCl)C(=O)NC[C@H]1OC(O)[C@H](O)[C@@H](O)[C@@H]1O` (stereo partly drawn) [Example 6DCNU, 3-(D-glucopyranos-6-yl)-1-(2-chloroethyl)-1-nitrosourea] here?
Its ILS is greater than 310%.

What about the “Survivors (60 days)” value ([1]; 3.2 mg/kg/day, i.p. D1~5) of the same compound?
Its value is 2/6.

What about the ILS ([1]; 6.3 mg/kg/day, i.p. D1~5) of the same compound?
Its ILS is greater than 410%.

What about the “Survivors (60 days)” value ([1]; 6.3 mg/kg/day, i.p. D1~5) of the same compound?
The value was 4/6.

What about the ILS ([1]; 12.5 mg/kg/day, i.p. D1) of the same compound?
Its ILS is greater than 426%.

And the “Survivors (60 days)” value ([1]; 12.5 mg/kg/day, i.p. D1)?
The value was 4/6.

What about the ILS ([1]; 12.5 mg/kg/day, i.p. D1~5) of the same compound?
Its ILS is greater than 520%.

And the “Survivors (60 days)” value ([1]; 12.5 mg/kg/day, i.p. D1~5)?
The value was 5/6.

What about the ILS ([1]; 12.5 mg/kg/day, p.o. D1~5) of the same compound?
Its ILS is greater than 123%.

What about the ILS ([1]; 15.0 mg/kg/day, i.p. D1~5) of the same compound?
The ILS was greater than 650%.

What about the “Survivors (60 days)” value ([1]; 15.0 mg/kg/day, i.p. D1~5) of the same compound?
Its value is 6/6.

And the ILS ([1]; 20.0 mg/kg/day, i.p. D1~5)?
The ILS was greater than 670%.

And the “Survivors (60 days)” value ([1]; 20.0 mg/kg/day, i.p. D1~5)?
The value was 6/6.

What about the ILS ([1]; 25.0 mg/kg/day, i.p. D1) of the same compound?
Its ILS is greater than 561%.

And the “Survivors (60 days)” value ([1]; 25.0 mg/kg/day, i.p. D1)?
The value was 5/6.

What about the ILS ([1]; 25.0 mg/kg/day, i.p. D1~5) of the same compound?
Its ILS is greater than 540%.

What about the “Survivors (60 days)” value ([1]; 25.0 mg/kg/day, i.p. D1~5) of the same compound?
Its value is 5/6.

What about the ILS ([1]; 25.0 mg/kg/day, p.o. D1~5) of the same compound?
The ILS was greater than 260%.

And the “Survivors (60 days)” value ([1]; 25.0 mg/kg/day, p.o. D1~5)?
Its value is 2/6.

What about the ILS ([1]; 30.0 mg/kg/day, i.p. D1~5) of the same compound?
The ILS was greater than 315%.

And the “Survivors (60 days)” value ([1]; 30.0 mg/kg/day, i.p. D1~5)?
Its value is 3/6.

And the ILS ([1]; 35.0 mg/kg/day, p.o. D1~5)?
The ILS was greater than 390%.

And the “Survivors (60 days)” value ([1]; 35.0 mg/kg/day, p.o. D1~5)?
Its value is 3/6.

And the ILS ([1]; 40.0 mg/kg/day, i.p. D1~5)?
Its ILS is greater than 225%.

And the “Survivors (60 days)” value ([1]; 40.0 mg/kg/day, i.p. D1~5)?
Its value is 2/6.

What about the ILS ([1]; 50.0 mg/kg/day, i.p. D1) of the same compound?
Its ILS is greater than 606%.

What about the “Survivors (60 days)” value ([1]; 50.0 mg/kg/day, i.p. D1) of the same compound?
Its value is 5/6.

And the ILS ([1]; 50.0 mg/kg/day, p.o. D1~5)?
Its ILS is greater than 442%.

What about the “Survivors (60 days)” value ([1]; 50.0 mg/kg/day, p.o. D1~5) of the same compound?
The value was 3/6.

And the ILS ([1]; 70.0 mg/kg/day, i.p. D1)?
The ILS was greater than 321%.

What about the “Survivors (60 days)” value ([1]; 70.0 mg/kg/day, i.p. D1) of the same compound?
The value was 3/6.

And the ILS ([1]; 70.0 mg/kg/day, p.o. D1~5)?
Its ILS is greater than 370%.

And the “Survivors (60 days)” value ([1]; 70.0 mg/kg/day, p.o. D1~5)?
The value was 3/6.

What about the ILS ([1]; 100.0 mg/kg/day, i.p. D1) of the same compound?
Its ILS is -3%.

And the ILS ([1]; 100.0 mg/kg/day, p.o. D1~5)?
The ILS was greater than 246%.

What about the “Survivors (60 days)” value ([1]; 100.0 mg/kg/day, p.o. D1~5) of the same compound?
The value was 2/6.

What about the ILS ([1]; 150.0 mg/kg/day, i.p. D1) of the same compound?
Its ILS is -10%.

What about the ILS ([1]; 200.0 mg/kg/day, i.p. D1) of the same compound?
Its ILS is -34%.

And the “antitumor activity, comparison in words” value ([1]; L-1210, BDF1 mice)?
Its value is “superior to that of DCNU, GANU and 2MCαG, and is almost equal to that of 6MCαG”.

And the “antitumor activity, in words” value ([1]; mouse, in vivo)?
Its value is “excellent antitumor activity”.

And the “antitumor activity in oral administration, in words” value ([1]; oral administration)?
Its value is “high activity equal to that of 6MCαG in oral administration”.

And the “antibacterial activity, in words” value [3]?
The value was “no substantial antibacterial activity”.
